# From patent publication EP0795549A1, “Bis-aryloxy(amino)-triazinyl-oxy(amino)aryl derivatives, their preparation and their use as antiviral agents” (American Cyanamid Company, priority 1996, dated 1997)
# Where a name gives a salt, the structure may show the parent alone. Read-outs that look alike come from different tables or passages of the source.
# Tests used:
# CMV (Ad169) [1] = experiment: viral yield reduction (growth inhibition) assay, CMV; type: cell-based, Cytomegalovirus; details: for Antiviral IC50 µg/ml CMV /HF: Table 1a; for IC50 µG/mL IN GROWTH […]/ HF: HF host cells
# Procedure: (§1) The compounds were tested for biological activity using viral yield reduction assays. Host cells (indicated as HF for human foreskin fibroblasts and as vero, the commonly used African green monkey cell line, in Tables 1 and 1a) were plated at 4 x 10^4 cells/well in cell growth medium with 2% fetal bovine serum or 2% calf serum in 96-well plates (0.1 ml/well) and incubated overnight. The compounds were added to individual wells to give final concentrations ranging from 50 to 0.1 µg/ml in two-fold concentration steps. After 1 hour, virus was added, and the incubation was continued for 4 days with RSV or CMV and for 2 days with HSV. At the end of the experiment, the amount of virus growth was quantitated and the yield reduction at various concentrations of compound was calculated. This allows estimation of the concentration of compound giving 50% reduction in virus growth (IC50).
# HSV1 (Patton) = experiment: viral yield reduction (growth inhibition) assay, HSV; type: cell-based, Herpes Simplex Virus; details: for Antiviral IC50 µg/ml HSV Vero: Table 1a, format not given; for IC50 µG/mL IN GROWTH […]/ HF: HF host cells
# Procedure: as §1
# RSV (A2) = experiment: viral yield reduction (growth inhibition) assay, RSV; type: cell-based, Respiratory Syncitial Virus; details: for IC50: human respiratory syncytial virus
# Procedure: as §1
# CMV (Ad169) [2] = experiment: viral plaque reduction assay, CMV; type: cell-based, Cytomegalovirus; details: CMV (Ad169), HF host cells; for IC50: Human betaherpesvirus 5, read-out: IC50µG/mL IN PLAQUE ASSAY CMV/ HF
# RSV = experiment: viral plaque reduction assay, RSV; type: cell-based, Respiratory Syncitial Virus; details: RSV (A2), vero host cells
# RSV A2 = type: in vivo, cotton rats; details: rat, in vivo
# [3] = Table 1a, HF, yield reduction or plaque format not specified
# [4] = Human betaherpesvirus 5, HF host cells, read-out: IC50 µG/mL IN GROWTH […]/ HF
# [5] = HF host cells, read-out: IC50 µG/mL IN GROWTH […]/ HF
# [6] = vero host cells, read-out: IC50 µG/mL IN GROWTH […]/ VERO
molecule,measurement,setting,value
"4',4-Bis-{4,6-bis-[3-(bis-carbamoylmethyl-1-sulfamoyl)-phenylamino]-[1,3,5]triazin-2-ylamino}-biphenyl-2,2'-dicarboxylic acid, disodium salt [Example 44]",Antiviral IC50 µg/ml CMV /HF,"CMV (Ad169) [1]; HF, format not given",1.5 µg/mL
same,Antiviral IC50 µg/ml HSV Vero,HSV1 (Patton); HSV1 (Patton),15 µg/mL
same,Antiviral IC50 µg/ml RSV/ HF,RSV (A2); [3],0.6 µg/mL
"4,4'-Bis[4,6-di[3-aminophenyl-N,N-bis(2-carbamoyl-ethyl)sulfonylimino]-1,3,5-triazin-2-ylamino]-bibenzyl-2,2'-disulfonic acid, disodium salt [Example 11]",IC50 µG/mL IN GROWTH […]/ HF,CMV (Ad169) [1],> 50 µg/mL
same,IC50 µG/mL IN GROWTH […]/ HF,RSV (A2); HF host cells,10 µg/mL
same,IC50 µG/mL IN GROWTH […]/ VERO,RSV (A2); vero host cells,10 µg/mL
"4,4'-Bis[4,6-di[3-aminophenyl-N,N-bis(2-carbamoyl-ethyl)sulfonylimino]-1,3,5-triazin-2-yloxy]-biphenyl-2,2'-disulfonic acid, disodium salt [Example 19]",IC50 µG/mL IN GROWTH […]/ HF,CMV (Ad169) [1],12 µg/mL
same,IC50 µG/mL IN GROWTH […]/ HF,HSV1 (Patton); HSV1 (Patton),30 µg/mL
same,IC50 µG/mL IN GROWTH […]/ VERO,"HSV1 (Patton); HSV1 (Patton), vero host cells",~50 µg/mL
same,IC50 µG/mL IN GROWTH […]/ HF,RSV (A2); HF host cells,2 µg/mL
same,IC50 µG/mL IN GROWTH […]/ VERO,RSV (A2); vero host cells,3 µg/mL
"4,4'-Bis[4,6-di[3-aminophenyl-N,N-bis(2-hydroxyethyl)sulfonyliminol-1,3,5-triazin-2-ylamino]-biphenyl-2,2'-disulfonic acid, disodium salt [Example 22]",IC50 µG/mL IN GROWTH […]/ HF,CMV (Ad169) [1],4 µg/mL
same,IC50 µG/mL IN GROWTH […]/ HF,RSV (A2); HF host cells,0.15 µg/mL
same,IC50 µG/mL IN GROWTH […]/ VERO,RSV (A2); vero host cells,0.25 µg/mL
same,IC50µG/mL IN PLAQUE ASSAY CMV/ HF,CMV (Ad169) [2],2 µg/mL
"4,4'-Bis[4,6-di[3-aminophenyl-N,N-bis(3-hydroxypropyl)-sulfonylimino]-1,3,5-triazin-2-ylamino]-biphenyl-2,2'-disulfonic acid, disodium salt [Example 59]",Antiviral IC50 µg/ml CMV /HF,"CMV (Ad169) [1]; HF, format not given",4 µg/mL
same,Antiviral IC50 µg/ml HSV Vero,HSV1 (Patton); HSV1 (Patton),20 µg/mL
same,Antiviral IC50 µg/ml RSV/ HF,RSV (A2); [3],0.5 µg/mL
"4,4'-Bis[4,6-di[4-amino-N'-[3-aminophenyl-N,N-bis(2-hydroxyethyl)sulfonylimino]-benzensulfonamide]-1,3,5-triazin-2-ylamino]-stilbene-2,2'-disulfonic acid, disodium salt [Example 25]",IC50 µG/mL IN GROWTH […]/ VERO,RSV (A2); vero host cells,30 µg/mL
"4,4'-Bis[4,6-di[4-aminophenyl-N,N-bis(2-carbamoyl-ethyl)sulfonylimino]-1,3,5-triazin-2-ylamino]-biphenyl-2,2'-disulfonic acid, disodium salt [Example 13]",IC50 µG/mL IN GROWTH […]/ HF,CMV (Ad169) [1],20 µg/mL
same,IC50 µG/mL IN GROWTH […]/ HF,HSV1 (Patton); HSV1 (Patton),10 µg/mL
same,IC50 µG/mL IN GROWTH […]/ VERO,"HSV1 (Patton); HSV1 (Patton), vero host cells",30 µg/mL
same,IC50 µG/mL IN GROWTH […]/ HF,RSV (A2); HF host cells,8 µg/mL
same,IC50 µG/mL IN GROWTH […]/ VERO,RSV (A2); vero host cells,8 µg/mL
"4,4'-Bis[4,6-di[4-aminophenyl-N,N-bis(2-carbamoyl-ethyl)sulfonylimino]-1,3,5-triazin-2-ylamino]-stilbene-2,2'-disulfonic acid, disodium salt [Example 12]",IC50µG/mL IN PLAQUE ASSAY RSV/ VERO,RSV,8 µg/mL
same,IC50µG/mL IN PLAQUE ASSAY CMV/ HF,CMV (Ad169) [2],10 µg/mL
"4,4'-Bis[4-chloro-6-[3-aminophenyl-N,N-bis(2-carbamoylethyl)sulfonylimino]-1,3,5-triazin-2-ylamino]-stilbene-2,2'-disulphonic acid, disodium salt [Example 8]",IC50 µG/mL IN GROWTH […]/ HF,CMV (Ad169) [1],> 50 µg/mL
same,IC50 µG/mL IN GROWTH […]/ HF,RSV (A2); HF host cells,> 50 µg/mL
same,IC50 µG/mL IN GROWTH […]/ VERO,RSV (A2); vero host cells,> 50 µg/mL
"4,4'-Bis[4-chloro-6-di[4-amino-N'-[3-aminophenyl-N,N-bis(2-carbamoylethyl)sulfonylimino]-benzamide]-1,3,5-triazin-2-ylamino]-stilbene-2,2' -disulfonic acid, disodium salt [Example 24]",IC50 µG/mL IN GROWTH […]/ VERO,RSV (A2); vero host cells,50 µg/mL
"4-[4,6-Di[3-aminophenyl-N,N-bis(2-carbamoylethyl)sulfonylimino]-1,3,5-triazin-2-ylamino]-4'-[4-[3-aminophenyl-N,N-bis(2-carbamoylethyl)sulfonylimino]-6-[3 -aminophenyl-N,N bis(3-propionic acid)]-1,3,5-triazin-2-ylamino]-stilbene-2,2'-disulphonic acid, disodium salt [Example 10]",IC50 µG/mL IN GROWTH […]/ HF,RSV (A2); HF host cells,< 3 µg/mL
same,IC50 µG/mL IN GROWTH […]/ VERO,RSV (A2); vero host cells,0.7 µg/mL
"4-[4,6-Di[3-aminophenyl-N,N-bis(2-carbamoylethyl)sulfonylimino]-1,3,5-triazin-2-ylamino]-4'-[4-[3-aminophenyl-N,N-bis(2-carbamoylethyl)sulfonylimino]-6-[3 -aminophenyl-N-(2-carbamoylethyl)-N'-(3-propionic acid)]-1,3,5-triazin-2-ylamino]stilbene-2,2'-disulphonic acid, disodium salt [Example 9]",IC50 µG/mL IN GROWTH […]/ HF,RSV (A2); HF host cells,< 3 µg/mL
same,IC50 µG/mL IN GROWTH […]/ VERO,RSV (A2); vero host cells,0.4 µg/mL
same,IC50µG/mL IN PLAQUE ASSAY RSV/ VERO,RSV,0.3 µg/mL
same,IC50µG/mL IN PLAQUE ASSAY CMV/ HF,CMV (Ad169) [2],10 µg/mL
"4-[4,6-Di[3-aminophenyl-N,N-bis(2-carbamoylethyl)sulfonylimino]-1,3,5-triazin-2-ylamino]-4'-[4-chloro-6-[3-aminophenyl-N,N-bis(2-carbamoylethyl)sulfonylimino] -1,3,5-triazin-2-ylamino]-stilbene-2,2'-disulphonic acid, disodium salt [Example 7]",IC50 µG/mL IN GROWTH […]/ HF,RSV (A2); HF host cells,0.7 µg/mL
same,IC50 µG/mL IN GROWTH […]/ VERO,RSV (A2); vero host cells,1 µg/mL
same,IC50µG/mL IN PLAQUE ASSAY RSV/ VERO,RSV,0.8 µg/mL
same,IC50µG/mL IN PLAQUE ASSAY CMV/ HF,CMV (Ad169) [2],10 µg/mL
"5,5'-Dimethyl-4,4'-bis[4,6-di[3-aminophenyl-N,N-bis(2-carbamoyl-ethyl)sulfonylimino]-1,3,5-triazin-2-ylamino]-biphenyl-2,2'-disulfonic acid, disodium salt [Example 20]",IC50 µG/mL IN GROWTH […]/ VERO,"HSV1 (Patton); HSV1 (Patton), vero host cells",40 µg/mL
same,IC50 µG/mL IN GROWTH […]/ HF,RSV (A2); HF host cells,0.5 µg/mL
"9,9-Dioxo-2,7-Bis[4,6-di[3-aminophenyl-N,N-bis(2-carbamoylethyl)sulfonylimino]-1,3,5-triazin-2-ylamino]-dibenzothiophen-3,6-disulfonic acid, disodium salt [Example 23]",IC50µG/mL IN PLAQUE ASSAY RSV/ VERO,RSV,8 µg/mL
same,IC50µG/mL IN PLAQUE ASSAY CMV/ HF,CMV (Ad169) [2],20 µg/mL
"NC(=O)CCN(CCC(N)=O)S(=O)(=O)c1cccc(Nc2nc(Cl)nc(Nc3cccc(S(=O)(=O)N(CCC(N)=O)CCC(N)=O)c3)n2)c1 [Example 6, 2-Chloro-4,6-di[3-aminophenyl-N,N-bis(2-carbamoyl-ethyl)sulfonylimino]-1,3,5-triazine]",IC50,CMV (Ad169) [1]; [4],> 50 µg/mL
same,IC50,RSV (A2); [5],> 50 µg/mL
same,IC50,RSV (A2); [6],> 50 µg/mL
"NS(=O)(=O)c1cccc(Nc2nc(Nc3cccc(S(N)(=O)=O)c3)nc(Nc3ccc(/C=C/c4ccc(Nc5nc(Nc6cccc(S(N)(=O)=O)c6)nc(Nc6cccc(S(N)(=O)=O)c6)n5)cc4S(=O)(=O)O)c(S(=O)(=O)O)c3)n2)c1 [Example 15, 4,4'-Bis[4,6-di[3-aminophenylsulphonylamido]-1,3,5-triazin-2-ylamino]-stilbene-2,2'-disulfonic acid, disodium salt]",IC50,CMV (Ad169) [1]; [4],2 µg/mL
same,IC50,RSV (A2); [5],7 µg/mL
same,IC50,RSV (A2); [6],> 8.3 µg/mL
same,IC50,CMV (Ad169) [2],1 µg/mL
"NS(=O)(=O)c1cccc(Nc2nc(Nc3cccc(S(N)(=O)=O)c3)nc(Nc3ccc(-c4ccc(Nc5nc(Nc6cccc(S(N)(=O)=O)c6)nc(Nc6cccc(S(N)(=O)=O)c6)n5)cc4S(=O)(=O)O)c(S(=O)(=O)O)c3)n2)c1 [Example 16, 4,4'-Bis[4,6-di[3-aminophenylsylphonylimido]-1,3,5-triazin-2-ylamino]-biphenyl-2,2'-disulfonic acid, disodium salt]",IC50,CMV (Ad169) [1]; [4],3 µg/mL
same,IC50,RSV (A2); [5],5 µg/mL
same,IC50,RSV (A2); [6],~8.3 µg/mL
same,IC50,CMV (Ad169) [2],3 µg/mL
"O=S(=O)(O)c1cc(O)ccc1-c1ccc(O)cc1S(=O)(=O)O [Example 17, 4,4'-Dihydroxybiphenyl-2,2'-disulfonic acid]",IC50,"HSV1 (Patton); Human alphaherpesvirus 1, HSV1 (Patton), vero host cells, read-out: IC50 µG/mL IN GROWTH INHIBITION HSV/ VERO",> 50 µg/mL
same,IC50,RSV (A2); [5],> 50 µg/mL
same,IC50,RSV (A2); [6],> 50 µg/mL
"CC(O)CN(CC(C)O)S(=O)(=O)c1cccc(Nc2nc(Nc3cccc(S(=O)(=O)N(CC(C)O)CC(C)O)c3)nc(Nc3ccc(-c4ccc(Nc5nc(Nc6cccc(S(=O)(=O)N(CC(C)O)CC(C)O)c6)nc(Nc6cccc(S(=O)(=O)N(CC(C)O)CC(C)O)c6)n5)cc4C(=O)[O-])c(C(=O)[O-])c3)n2)c1.[Na+].[Na+] (stereo not drawn) [Example 41, 4,4'-Bis-(4,6-bis-{3-[bis-(2-hydroxy-propyl)-sulfamoyl]-phenylamino}-[1,3,5]triazin-2-ylamino)biphenyl-2,2'-dicarboxylic acid, disodium salt]",IC50,"CMV (Ad169) [1]; Human betaherpesvirus 5, Table 1a, HF, format not given, read-out: Antiviral IC50 µg/ml CMV /HF",8 µg/mL
same,IC50,"HSV1 (Patton); Human alphaherpesvirus 1, Vero, read-out: Antiviral IC50 µg/ml HSV Vero",> 50 µg/mL
same,IC50,"RSV (A2); Table 1a, HF, yield reduction or plaque format not specified, read-out: Antiviral IC50 µg/ml RSV/ HF",2 µg/mL
"NC(=O)c1ncn([C@@H]2O[C@H](CO)[C@@H](O)[C@H]2O)n1 [Ribavirin, ribavirin, reference compound]",Fold red. log10,RSV A2,0.8 log10
same,Mean titer log10/g lung,RSV A2,3.3 log10/g lung
